From the supplement of paper PMC10307832

Key:
Assay in all cases: relative viability (nuclei count vs DMSO), 5 days (fraction); higher = more cells survive
[1] = compound: CCC1=CN=CN=C1N2CCN(CC2)CC3=NC4=C(N3)C=C(C=C4)C(F)(F)F + Cc1nc(Nc2ncc(C(=O)Nc3c(C)cccc3Cl)s2)cc(N2CCN(CCO)CC2)n1 [Dasatinib] (partner 0.075 µM)
Outline: (§1)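 For relative viability, nuclei counts in treated wells were divided by those in vehicle wells. Lung cancer cell lines had been pin-tool dosed in 1536-well plates the day after seeding and cultured for 5 days, then fixed and stained in one step (final 0.05% Triton X-100, 1% formaldehyde, 1 ug/ml Hoechst) and imaged at 4×. Doses were one drug alone or a fixed anchor-drug dose plus five library-drug doses (not always all listed) in √10 steps, and values are duplicate-plate medians.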

[2] = compound: CCn1c(-c2nonc2N)nc2cnc(Oc3cccc(NC(=O)c4ccc(OCCN5CCOCC5)cc4)c3)cc21 + CS(=O)(=O)N1CCN(Cc2cc3nc(-c4cccc5[nH]ncc45)nc(N4CCOCC4)c3s2)CC1 [Pictilisib] (partner 1 µM)
Outline: as §1

Mirin + Lapatinib = compound: N=C1NC(=O)/C(=C/c2ccc(O)cc2)S1 [Mirin] + CS(=O)(=O)CCNCc1ccc(-c2ccc3ncnc(Nc4ccc(OCc5cccc(F)c5)c(Cl)c4)c3c2)o1 [Lapatinib] (partner 2 µM)
Outline: as §1

Mirin + Luminespib = compound: N=C1NC(=O)/C(=C/c2ccc(O)cc2)S1 [Mirin] + CCNC(=O)c1noc(-c2cc(C(C)C)c(O)cc2O)c1-c1ccc(CN2CCOCC2)cc1 [Luminespib] (partner 0.01 µM)
Outline: as §1

| Cell Line | relative viability ([1]; first compound 0.04 µM) | relative viability ([1]; first compound 0.1265 µM) | relative viability ([1]; first compound 0.4 µM) | relative viability ([1]; first compound 4 µM) | relative viability ([2]; first compound 0.04 µM) | relative viability ([2]; first compound 0.1265 µM) | relative viability ([2]; first compound 0.4 µM) | relative viability ([2]; first compound 1.265 µM) | relative viability ([2]; first compound 4 µM) | relative viability (Mirin + Lapatinib; first compound 0.25 µM) | relative viability (Mirin + Lapatinib; first compound 0.7906 µM) | relative viability (Mirin + Lapatinib; first compound 2.5 µM) | relative viability (Mirin + Lapatinib; first compound 7.906 µM) | relative viability (Mirin + Lapatinib; first compound 25 µM) | relative viability (Mirin + Luminespib; first compound 0.25 µM) | relative viability (Mirin + Luminespib; first compound 0.7906 µM) | relative viability (Mirin + Luminespib; first compound 2.5 µM) | relative viability (Mirin + Luminespib; first compound 7.906 µM) | relative viability (Mirin + Luminespib; first compound 25 µM) | relative viability ([1]; first compound 1.265 µM) |
| --- | --- | --- | --- | --- | --- | --- | --- | --- | --- | --- | --- | --- | --- | --- | --- | --- | --- | --- | --- | --- |
| NCI-H727 | 0.407 | 0.38 | 0.364 | 0.314 | 0.613 | 0.741 | 0.604 | 0.487 | 0.345 | 0.995 | 0.714 | 0.96 | 0.672 | 0.851 | 0.515 | 0.307 | 0.453 | 0.265 | 0.316 | – |
| EMC-BAC-2 | 0.358 | 0.354 | 0.322 | 0.289 | 0.655 | 0.517 | 0.395 | 0.382 | 0.339 | 0.955 | 0.902 | 0.954 | 0.918 | 0.88 | 1.08 | 1.13 | 1.13 | 1.17 | 1.1 | – |
| NCI-H1355 | 0.761 | 0.631 | 0.621 | 0.735 | 0.446 | 0.418 | 0.338 | 0.32 | 0.277 | 1.01 | 0.961 | 1.01 | 1.1 | 1.11 | 0.724 | 0.855 | 0.764 | 0.689 | 0.548 | 0.657 |
| NCI-H2347 | 0.257 | 0.4 | 0.281 | 0.339 | 0.94 | 0.648 | 1.05 | 0.556 | 0.563 | 0.915 | 0.944 | 0.981 | 0.956 | 0.966 | 0.33 | 0.295 | 0.372 | 0.409 | 0.575 | 0.351 |
| NCI-H1651 | 0.542 | 0.294 | 0.403 | 0.368 | 0.762 | 0.667 | 0.456 | 0.486 | 0.345 | 0.882 | 0.832 | 0.938 | 0.711 | 0.824 | 0.851 | 0.694 | 0.833 | 0.854 | 0.784 | 0.386 |
| NCI-H1975 | 0.402 | 0.435 | 0.385 | 0.293 | 0.253 | 0.192 | 0.157 | 0.143 | 0.148 | 1.12 | 0.785 | 0.883 | 1.02 | 0.757 | 0.201 | 0.254 | 0.16 | 0.306 | 0.125 | 0.325 |
| COR-L23 | 0.536 | 0.477 | 0.502 | 0.484 | 1.02 | 0.68 | 0.238 | 0.197 | 0.192 | 0.796 | 1.08 | 0.907 | 0.999 | 0.914 | 0.763 | 0.726 | 0.609 | 0.626 | 0.499 | 0.481 |
| LOU-NH91 | 0.477 | 0.466 | 0.485 | 0.568 | 0.61 | 0.613 | 0.484 | 0.475 | 0.495 | 0.786 | – | 0.782 | 0.774 | 0.702 | 0.304 | 0.301 | 0.351 | 0.322 | 0.295 | 0.533 |
| NCI-H460 | 0.583 | 0.467 | 0.544 | 0.541 | 0.462 | 0.404 | 0.207 | 0.122 | 0.182 | 1.05 | 1.01 | 1.06 | 0.836 | 0.631 | 0.0342 | 0.0263 | 0.0361 | 0.0242 | 0.0254 | 0.472 |
| NCI-H650 | 0.4 | 0.413 | 0.456 | 0.494 | 1.09 | 0.809 | 0.594 | 0.484 | 0.542 | 0.943 | – | 0.902 | – | 1.02 | 0.741 | 0.7 | 0.857 | – | 0.811 | 0.441 |
| NCI-H1915 | 0.276 | 0.318 | 0.283 | 0.319 | 1.01 | 0.971 | 0.908 | 0.648 | 0.64 | 0.95 | – | 0.997 | 0.853 | 0.826 | 0.776 | – | 0.783 | 0.676 | 0.77 | 0.298 |
| NCI-H1734 | 0.403 | 0.532 | 0.522 | 0.441 | 0.47 | 0.415 | 0.282 | 0.309 | 0.249 | 1.02 | 0.906 | 1.06 | 0.941 | 0.905 | 0.191 | 0.182 | 0.21 | 0.208 | 0.217 | 0.476 |
| NCI-H1993 | 0.608 | 0.553 | 0.545 | 0.581 | 0.885 | 0.855 | – | 0.625 | 0.712 | 0.856 | 0.784 | 0.887 | 0.976 | 0.81 | 0.777 | – | 0.778 | 0.729 | 0.734 | 0.521 |
| LK-2 | 0.325 | 0.314 | 0.257 | 0.318 | 0.711 | 0.777 | 0.615 | 0.255 | 0.392 | 0.787 | – | 0.879 | 0.593 | 0.496 | 0.148 | – | 0.19 | 0.153 | 0.133 | 0.258 |
| NCI-H3122 | 0.848 | 0.781 | 0.804 | 1.02 | 0.879 | 0.672 | 0.516 | 0.674 | 0.542 | 1.04 | 1.02 | 1.05 | 1.05 | 1.18 | 0.0805 | 0.0865 | 0.0952 | 0.0621 | 0.0807 | 0.709 |
| HOP-62 | 0.589 | 0.584 | 0.539 | 0.653 | 0.88 | 0.757 | 0.599 | 0.535 | 0.433 | 1.05 | 1.16 | 1.01 | – | 1.23 | 0.956 | 0.987 | 0.923 | 1.05 | 1.03 | 0.626 |
| NCI-H661 | 0.951 | 0.872 | 0.827 | 0.909 | 0.415 | 0.457 | 0.33 | 0.202 | 0.288 | 0.407 | 0.567 | 0.539 | 0.442 | 0.392 | 0.929 | 1.03 | 0.945 | 0.978 | 0.97 | 0.772 |
